US4199573A, “Diazaborines and drug compositions” (Grunenthal GmbH, priority 1978, dated 1980)
In brackets after ≈: the same amount, converted by molar mass. Read-outs that look alike come from different tables or passages of the source.

What was measured:
E. coli [1] = assay: Mice infected with E. coli, CD50 (Tables I, II, IV); format: in vivo; conditions: Escherichia coli
Procedure: (§1) Typical of the compounds of the class are very active antimicrobial agents, especially against gram-negative bacteria, in particular E. coli. For instance, the following values of the CD50 were determined on administering the listed compounds of formula I, in which R1 is as defined in the following Table I, Antimicrobial Activity, R2 and R3 are hydrogen and wherein R4 is sodium to mice infected with the bacteria shown.
(§2) CD50 = Dose in mg of compound/kg of mouse body weight which cures th
(§3) infection in 50% of the animals

E. coli [2] = assay: Minimum inhibitory concentration, E. coli; format: cell-based; conditions: Escherichia coli
Proteus mirabilis [3] = assay: Minimum inhibitory concentration, Proteus mirabilis; format: cell-based
Proteus vulgaris [4] = assay: Minimum inhibitory concentration, Proteus vulgaris; format: cell-based
Klebsiella aeruginosa [5] = assay: Minimum inhibitory concentration, Klebsiella aeruginosa; format: cell-based
S. typhimurium = assay: Minimum inhibitory concentration, S. typhimurium; format: cell-based; conditions: Salmonella enterica
Proteus mirabilis [6] = assay: Mice infected with Proteus mirabilis, CD50 (Table II); format: in vivo; conditions: read-out: DC50 (the source's name)
Text: as §2, §3

Proteus vulgaris [7] = assay: Mice infected with Proteus vulgaris, CD50 (Table II); format: in vivo; conditions: read-out: DC50 (the source's name)
Text: as §2, §3

Klebsiella aeruginosa [8] = assay: Mice infected with Klebsiella aeruginosa, CD50 (Table II); format: in vivo; conditions: read-out: DC50 (the source's name)
Text: as §2, §3

B. proteus = assay: Mice infected with B. proteus, CD50; format: in vivo; conditions: Mus musculus
Procedure: as §1, §2, §3
(§4) The compounds of the invention also show effectiveness against other gram-negative bacteria.

Klebsiella pneumoniae = assay: Mice infected with Klebsiella pneumoniae, CD50; format: in vivo
Procedure: as §1, §2, §3, §4

[9] = po, Table I, mice infected with E. coli, p.o., R4 = sodium, read-out: CD50 (the source's name)
[10] = sc, Table I, mice infected with E. coli, s.c., R4 = sodium, read-out: CD50 (the source's name)
[11] = sc, Table II, infected mice, E. coli, s.c., read-out: DC50 (the source's name)

Nc1ccc(S(=O)(=O)N2N=Cc3ccccc3B2O)c(Cl)c1 [1-hydroxy-2(2'-chloro-4'-amino-phenylsulfonyl) benzo-2,3,1-diazaborine, reference compound]
ED50 (E. coli [1]; po, Table IV, comparative, E. coli, p.o., read-out: CD50 (the source's name)): 36 mg/kg
ED50 (E. coli [1]; sc, Table IV, comparative, E. coli, s.c., read-out: CD50 (the source's name)): 13.5 mg/kg

CC(C)CS(=O)(=O)N1N=Cc2ccccc2B1O [drawing 2]
ED50 (E. coli [1]; po, read-out: CD50): 8.85 mg/kg
ED50 (E. coli [1]; sc, read-out: CD50): 10.6 mg/kg

CCCS(=O)(=O)N1N=Cc2cc(CC)ccc2B1O [CH2CH2CH3, C2 H5]
MIC (E. coli [2]): 4 µg/mL (≈ 14.3 µM)
MIC (Proteus mirabilis [3]): 8 µg/mL (≈ 28.6 µM)
MIC (Proteus vulgaris [4]): 2 µg/mL (≈ 7.14 µM)
MIC (Klebsiella aeruginosa [5]): 1 µg/mL (≈ 3.57 µM)
MIC (S. typhimurium): 2 µg/mL (≈ 7.14 µM)

CCS(=O)(=O)N1N=Cc2ccccc2B1O [Compound 1]
ED50 (E. coli [1]; [9]): 11 mg/kg
ED50 (E. coli [1]; [10]): 9.8 mg/kg

CC(C)S(=O)(=O)N1N=Cc2ccccc2B1O [Compound 3]
ED50 (E. coli [1]; [9]): 12.5 mg/kg
ED50 (E. coli [1]; [10]): 9.2 mg/kg

CCCS(=O)(=O)N1N=Cc2cc(F)ccc2B1O [Compound 11]
ED50 (E. coli [1]; po, read-out: DC50): 6.95 mg/kg
ED50 (E. coli [1]; [11]): 5.65 mg/kg
ED50 (Proteus mirabilis [6]; po): 13.9 mg/kg
ED50 (Proteus mirabilis [6]; sc): 7.45 mg/kg
ED50 (Proteus vulgaris [7]; po): 13.9 mg/kg
ED50 (Proteus vulgaris [7]; sc): 7.45 mg/kg
ED50 (Klebsiella aeruginosa [8]; po): 5.65 mg/kg
ED50 (Klebsiella aeruginosa [8]; sc): 4.25 mg/kg
MIC (E. coli [2]): 4 µg/mL (≈ 14.8 µM)
MIC (Proteus mirabilis [3]): 4 µg/mL (≈ 14.8 µM)
MIC (Proteus vulgaris [4]): 4 µg/mL (≈ 14.8 µM)
MIC (Klebsiella aeruginosa [5]): 8 µg/mL (≈ 29.6 µM)
MIC (S. typhimurium): 8 µg/mL (≈ 29.6 µM)

Cc1ccc2c(c1)C=NN(S(=O)(=O)CC(C)C)B2O
MIC (E. coli [2]): 2 µg/mL (≈ 7.14 µM)
MIC (Proteus mirabilis [3]): 8 µg/mL (≈ 28.6 µM)
MIC (Proteus vulgaris [4]): 4 µg/mL (≈ 14.3 µM)
MIC (Klebsiella aeruginosa [5]): 2 µg/mL (≈ 7.14 µM)
MIC (S. typhimurium): 8 µg/mL (≈ 28.6 µM)

CC(C)CS(=O)(=O)N1N=Cc2ccccc2B1O [drawing 4]
MIC (E. coli [2]): 8 µg/mL (≈ 30.1 µM)
MIC (Proteus mirabilis [3]): 16 µg/mL (≈ 60.1 µM)
MIC (Proteus vulgaris [4]): 16 µg/mL (≈ 60.1 µM)
MIC (Klebsiella aeruginosa [5]): 4 µg/mL (≈ 15 µM)
MIC (S. typhimurium): 4 µg/mL (≈ 15 µM)

O=S(=O)(CCCCl)N1N=Cc2cc(F)ccc2B1O [CH2CH2CH2 Cl, F]
MIC (E. coli [2]): 16 µg/mL (≈ 52.5 µM)
MIC (Proteus mirabilis [3]): 16 µg/mL (≈ 52.5 µM)
MIC (Proteus vulgaris [4]): 8 µg/mL (≈ 26.3 µM)
MIC (Klebsiella aeruginosa [5]): 8 µg/mL (≈ 26.3 µM)
MIC (S. typhimurium): 4 µg/mL (≈ 13.1 µM)

O=S(=O)(CCl)N1N=Cc2ccccc2B1O [Compound 7]
ED50 (E. coli [1]; [9]): 12.4 mg/kg
ED50 (E. coli [1]; [10]): 11.8 mg/kg

O=S(=O)(CCCCl)N1N=Cc2ccccc2B1O [Compound 9]
ED50 (E. coli [1]; [9]): 22.7 mg/kg
ED50 (E. coli [1]; [10]): 21.8 mg/kg

C=CCS(=O)(=O)N1N=Cc2ccccc2B1O [Compound 6]
ED50 (E. coli [1]; [9]): 13.2 mg/kg
ED50 (E. coli [1]; [10]): 13.2 mg/kg

CCCCS(=O)(=O)N1N=Cc2ccccc2B1O [Compound 4]
ED50 (E. coli [1]; [9]): 11.2 mg/kg
ED50 (E. coli [1]; [10]): 5.85 mg/kg

CCc1ccc2c(c1)C=NN(S(=O)(=O)CCCCl)B2O [CH2CH2CH2Cl, C2 H5]
MIC (E. coli [2]): 4 µg/mL (≈ 12.7 µM)
MIC (Proteus mirabilis [3]): 2 µg/mL (≈ 6.36 µM)
MIC (Proteus vulgaris [4]): 4 µg/mL (≈ 12.7 µM)
MIC (Klebsiella aeruginosa [5]): 2 µg/mL (≈ 6.36 µM)
MIC (S. typhimurium): 2 µg/mL (≈ 6.36 µM)

CCCCCS(=O)(=O)N1N=Cc2ccccc2B1O [(CH2)4CH3, H]
MIC (E. coli [2]): 32 µg/mL (≈ 114 µM)
MIC (Proteus mirabilis [3]): 32 µg/mL (≈ 114 µM)
MIC (Proteus vulgaris [4]): 32 µg/mL (≈ 114 µM)
MIC (Klebsiella aeruginosa [5]): 8 µg/mL (≈ 28.6 µM)
MIC (S. typhimurium): 16 µg/mL (≈ 57.1 µM)

CCCS(=O)(=O)N1N=Cc2ccccc2B1O [Compound 2]
ED50 (E. coli [1]; [9]): 7 mg/kg
ED50 (E. coli [1]; [10]): 6.7 mg/kg
ED50 (B. proteus; per oral (p.o.)): 18.7 mg/kg
ED50 (B. proteus; sc, subcutaneous (s.c.)): 11.7 mg/kg
ED50 (Klebsiella pneumoniae; po): 11.3 mg/kg
ED50 (Klebsiella pneumoniae; sc): 6.75 mg/kg
MIC (E. coli [2]): 4 µg/mL (≈ 15.9 µM)
MIC (Proteus mirabilis [3]): 32 µg/mL (≈ 127 µM)
MIC (Proteus vulgaris [4]): 32 µg/mL (≈ 127 µM)
MIC (Klebsiella aeruginosa [5]): 8 µg/mL (≈ 31.7 µM)
MIC (S. typhimurium): 16 µg/mL (≈ 63.5 µM)

CC(Cl)S(=O)(=O)N1N=Cc2ccccc2B1O (stereo not shown) [Compound 8]
ED50 (E. coli [1]; [9]): 17.7 mg/kg
ED50 (E. coli [1]; [10]): 14.8 mg/kg

Cc1ccc2c(c1)C=NN(S(=O)(=O)CCCCl)B2O [Compound 10]
ED50 (E. coli [1]; po, read-out: DC50): 9.8 mg/kg
ED50 (E. coli [1]; [11]): 8.8 mg/kg
ED50 (Proteus mirabilis [6]; po): 9.15 mg/kg
ED50 (Proteus mirabilis [6]; sc): 7.45 mg/kg
ED50 (Proteus vulgaris [7]; po): 8.6 mg/kg
ED50 (Proteus vulgaris [7]; sc): 8.4 mg/kg
ED50 (Klebsiella aeruginosa [8]; po): 9.15 mg/kg
ED50 (Klebsiella aeruginosa [8]; sc): 6.95 mg/kg
MIC (E. coli [2]): 2 µg/mL (≈ 6.65 µM)
MIC (Proteus mirabilis [3]): 4 µg/mL (≈ 13.3 µM)
MIC (Proteus vulgaris [4]): 4 µg/mL (≈ 13.3 µM)
MIC (Klebsiella aeruginosa [5]): 1 µg/mL (≈ 3.33 µM)
MIC (S. typhimurium): 1 µg/mL (≈ 3.33 µM)
